Results published in PubChem BioAssay (NCI).
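GI50: concentration for 50% inhibition of growth. TGI: total growth inhibition.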

Tests used:
Assay in all cases: NCI tumour cell line growth inhibition, 384-well format
SNB-19 CNS = system: SNB-19 CNS
SK-MEL-2 melanoma = system: SK-MEL-2 melanoma
COLO 205 colon = system: COLO 205 colon
SN12C renal = system: SN12C renal
HL-60(TB) leukemia = system: HL-60(TB) leukemia
NCI-H460 NSCLC = system: NCI-H460 NSCLC
KM12 colon = system: KM12 colon
SNB-75 CNS = system: SNB-75 CNS
A549 NSCLC = system: A549 NSCLC
RXF 393 renal = system: RXF 393 renal
NCI-H322M lung = system: NCI-H322M lung
OVCAR-4 ovarian = system: OVCAR-4 ovarian
U251 glioblastoma = system: U251 glioblastoma
HS 578T breast = system: HS 578T breast
MOLT-4 leukemia = system: MOLT-4 leukemia
SK-MEL-28 melanoma = system: SK-MEL-28 melanoma
RPMI-8226 leukemia = system: RPMI-8226 leukemia
SF-539 CNS = system: SF-539 CNS
M14 melanoma = system: M14 melanoma
HOP-62 NSCLC = system: HOP-62 NSCLC
NCI-H226 lung = system: NCI-H226 lung
NCI/ADR-RES ovarian = system: NCI/ADR-RES ovarian
IGROV1 ovarian = system: IGROV1 ovarian
T-47D breast = system: T-47D breast
DU-145 prostate = system: DU-145 prostate
EKVX NSCLC = system: EKVX NSCLC
MDA-MB-468 breast = system: MDA-MB-468 breast
HT29 colon = system: HT29 colon
NCI-H522 lung = system: NCI-H522 lung
MDA-MB-231 breast = system: MDA-MB-231 breast
MCF7 breast = system: MCF7 breast
BT-549 breast = system: BT-549 breast
HCT-15 colon = system: HCT-15 colon
OVCAR-3 ovarian = system: OVCAR-3 ovarian
OVCAR-5 ovarian = system: OVCAR-5 ovarian
OVCAR-8 ovarian = system: OVCAR-8 ovarian
SF-268 CNS = system: SF-268 CNS
PC-3 prostate = system: PC-3 prostate
CCRF-CEM leukemia = system: CCRF-CEM leukemia
786-0 renal = system: 786-0 renal
SW-620 colon = system: SW-620 colon
HOP-92 NSCLC = system: HOP-92 NSCLC
SF-295 CNS = system: SF-295 CNS
NCI-H23 lung = system: NCI-H23 lung
SK-OV-3 ovarian = system: SK-OV-3 ovarian
SK-MEL-5 melanoma = system: SK-MEL-5 melanoma
SR leukemia = system: SR leukemia
UACC-62 melanoma = system: UACC-62 melanoma
HCC-2998 colon = system: HCC-2998 colon
MDA-MB-435 melanoma = system: MDA-MB-435 melanoma
CAKI-1 renal = system: CAKI-1 renal
UACC-257 melanoma = system: UACC-257 melanoma
TK-10 renal = system: TK-10 renal
ACHN renal = system: ACHN renal
MALME-3M melanoma = system: MALME-3M melanoma

What does the source list for `Nc1ccn([C@@H]2S[C@H](CO)[C@@H](O)[C@@H]2F)c(=O)n1`?
GI50 (SNB-19 CNS): 22.5 nM; TGI (SNB-19 CNS): 387 nM; GI50 (SK-MEL-2 melanoma): 56.5 nM; TGI (SK-MEL-2 melanoma): 201 nM; GI50 (COLO 205 colon): 49.3 nM; TGI (COLO 205 colon): 277 nM; GI50 (SN12C renal): 23.8 nM; TGI (SN12C renal): 69.5 nM; GI50 (HL-60(TB) leukemia): 20.3 nM; TGI (HL-60(TB) leukemia): 39 nM; GI50 (NCI-H460 NSCLC): 24 nM; TGI (NCI-H460 NSCLC): 91 nM; GI50 (KM12 colon): 86.2 nM; TGI (KM12 colon): > 100000 nM; GI50 (SNB-75 CNS): 54 nM; TGI (SNB-75 CNS): 2680 nM; GI50 (A549 NSCLC): 57.1 nM; TGI (A549 NSCLC): > 100000 nM; GI50 (RXF 393 renal): 77.4 nM; TGI (RXF 393 renal): 767 nM; GI50 (NCI-H322M lung): 179 nM; TGI (NCI-H322M lung): 50400 nM; GI50 (OVCAR-4 ovarian): > 100000 nM; TGI (OVCAR-4 ovarian): > 100000 nM; GI50 (U251 glioblastoma): 172 nM; TGI (U251 glioblastoma): 572 nM; GI50 (HS 578T breast): 53.2 nM; TGI (HS 578T breast): > 100000 nM; GI50 (MOLT-4 leukemia): < 10 nM; GI50 (SK-MEL-28 melanoma): 74.3 nM; TGI (SK-MEL-28 melanoma): 672 nM; GI50 (RPMI-8226 leukemia): 194 nM; TGI (RPMI-8226 leukemia): 449 nM; GI50 (SF-539 CNS): 138 nM; TGI (SF-539 CNS): 352 nM; GI50 (M14 melanoma): 38.7 nM; TGI (M14 melanoma): 163 nM; GI50 (HOP-62 NSCLC): 14.3 nM; TGI (HOP-62 NSCLC): 54.8 nM; GI50 (NCI-H226 lung): 84.9 nM; TGI (NCI-H226 lung): 320 nM; GI50 (NCI/ADR-RES ovarian): 16.5 nM; TGI (NCI/ADR-RES ovarian): 48.1 nM; GI50 (IGROV1 ovarian): 310 nM; TGI (IGROV1 ovarian): 57500 nM; GI50 (T-47D breast): 310 nM; TGI (T-47D breast): 35500 nM; GI50 (DU-145 prostate): 24.3 nM; TGI (DU-145 prostate): 71.2 nM; GI50 (EKVX NSCLC): 434 nM; TGI (EKVX NSCLC): > 100000 nM; GI50 (MDA-MB-468 breast): 61.7 nM; TGI (MDA-MB-468 breast): 624 nM; GI50 (HT29 colon): 116 nM; TGI (HT29 colon): 15600 nM; GI50 (NCI-H522 lung): 11.6 nM; TGI (NCI-H522 lung): 95 nM; GI50 (MDA-MB-231 breast): 20.3 nM; TGI (MDA-MB-231 breast): 600 nM; GI50 (MCF7 breast): 90.9 nM; TGI (MCF7 breast): > 100000 nM; GI50 (BT-549 breast): 22.6 nM; TGI (BT-549 breast): 192 nM; GI50 (HCT-15 colon): 55.7 nM; TGI (HCT-15 colon): > 100000 nM; GI50 (OVCAR-3 ovarian): 47.3 nM; TGI (OVCAR-3 ovarian): 6890 nM; GI50 (OVCAR-5 ovarian): 150 nM; GI50 (OVCAR-8 ovarian): 13.4 nM; TGI (OVCAR-8 ovarian): 35.2 nM; GI50 (SF-268 CNS): 140 nM; TGI (SF-268 CNS): 349 nM; GI50 (PC-3 prostate): 55.9 nM; TGI (PC-3 prostate): > 100000 nM; GI50 (CCRF-CEM leukemia): < 10 nM; TGI (CCRF-CEM leukemia): 12.2 nM; GI50 (786-0 renal): 44.2 nM; TGI (786-0 renal): 319 nM; GI50 (SW-620 colon): 250 nM; TGI (SW-620 colon): > 100000 nM; GI50 (HOP-92 NSCLC): 25.2 nM; TGI (HOP-92 NSCLC): 9020 nM; GI50 (SF-295 CNS): 143 nM; TGI (SF-295 CNS): 460 nM; GI50 (NCI-H23 lung): 23.7 nM; TGI (NCI-H23 lung): 64.5 nM; GI50 (SK-OV-3 ovarian): 24.2 nM; TGI (SK-OV-3 ovarian): 182 nM; GI50 (SK-MEL-5 melanoma): 53.6 nM; TGI (SK-MEL-5 melanoma): 252 nM; GI50 (SR leukemia): 139 nM; TGI (SR leukemia): 271 nM; GI50 (UACC-62 melanoma): 184 nM; TGI (UACC-62 melanoma): 443 nM; GI50 (HCC-2998 colon): 15.2 nM; TGI (HCC-2998 colon): 255 nM; GI50 (MDA-MB-435 melanoma): 383 nM; TGI (MDA-MB-435 melanoma): > 100000 nM; GI50 (CAKI-1 renal): 37.3 nM; TGI (CAKI-1 renal): 797 nM; GI50 (UACC-257 melanoma): 318 nM; TGI (UACC-257 melanoma): 7780 nM; GI50 (TK-10 renal): > 100000 nM; TGI (TK-10 renal): > 100000 nM; GI50 (ACHN renal): 23.8 nM; TGI (ACHN renal): 56.6 nM; GI50 (MALME-3M melanoma): < 10 nM; TGI (MALME-3M melanoma): 316 nM
